Data published in patent US12409304B2, “Drug delivery devices with drug-permeable component and methods” (TARIS Biomedical LLC, priority 2013, dated 2025).
Counter-ions that a name gives are not always drawn. Values belong to the compound of their own block, whether it stands above or below them.

Tests used:
[1] = In vitro drug permeation from Tecophilic film pouches loaded with a gemcitabine tablet (Example 1); type: physicochemical; details: DI water at 37° C.
Procedure: Pouches formed of Tecophilic™ film and loaded with gemcitabine (GEM) were tested in vitro for drug permeation. The effect of gamma irradiation on these pouches was also studied. The pouches were made of HP-93A-100 and HP-60D-60 films with thickness of 0.5 mm (films provided by Lubrizol) (http://www.lubrizol.com/Medical/Products/Tecophilic.html). These thermoplastic polyurethanes (TPUs) were selected for their biocompatibility and ability to absorb equilibrium water content up to 100% of the weight of dry resin, as well as other properties. The material properties of the film materials used are given below in Table 1. Each pouch was made out of 2 films which were heat-sealed at all four edges of each pouch after loading each pouch with a single tablet of gemcitabine HCl or base formulated as follows: (1) Gemcitabine HCl: 89% GEM HCl, 10% Isomalt, 1% Lubritab (water insoluble), or […] Some of the pouches were gamma irradiated (25 kGy). The pouches were then placed into 21 mL DI water at 37° C. Thereafter, at each time point, 5× inversion, 1 mL sample was taken out followed by a 1 mL DI water refill.

physchem = details: 37 °C, water
[2] = Approximate solubility of drugs in water
[3] = In vitro release from Tecophilic film pouches loaded with gemcitabine HCl and urea tablets (Example 1A); type: physicochemical; details: pouches with 1 gemcitabine HCl tablet and 4 urea tablets, DI water at 37° C.
Procedure: Pouches constructed as in Example 1 were made, except each was loaded with 1 gemcitabine (GEM) HCl tablet and 4 tablets of urea. The pouches were then placed into 21 mL DI water at 37° C. Thereafter, at each time point, 5× inversion, 1 mL sample was taken out followed by a 1 mL DI water refill.

[4] = In vitro gemcitabine release from one-module and four-module devices with end wall disks (Example 5); type: physicochemical; details: one module device, jar rotated at 4 rpm or not
Procedure: There were three experimental groups tested: 1) one module device with the releasing jar being rotated in the rotator at 4 rpm ('Rotator'), 2) one module device without the jar rotated ('Static'), and 3) four module device without the jar rotated ('Static'). Each module is comprised of silicone tube made of MED-4750 (Nusil) with the dimensions of 2.64 mm ID and 0.20 mm wall thickness. Multiple gemcitabine HCl tablets with 2.6 mm OD were loaded into the silicone tube with each module having a total gemcitabine HCl payload of approximately 190 mg. The tablet formulation was 90% gemcitabine HCl, 5% PVP, 2.5% Neusilin, and 2.5% magnesium stearate. […] Thermoplastic Polyurethanes) at each end of the tablet drug core. The dimensions of each disk were approximately 0.5 mm thickness and 3.0 mm OD. The OD (3.0 mm) of the disks was larger than the silicone tube ID (2.64 mm), and so the disks were frictionally fit in the silicone tube. Each module has a silicone outer washer, made of MED-4780 (Nusil), located next to each disk with silicone adhesive (MED3-4213) applied around the washer, to stabilize the outward migration of the disk. […] In addition, each module has a polyimide inner washer with 2.67 mm ID, 0.064 mm wall, and approximately 4 mm length. The inner washer was filled with a tablet so that the disk was initially in contact with the tablet. […]

SMILES: Nc1ccn([C@@H]2O[C@H](CO)[C@@H](O)C2(F)F)c(=O)n1 [gemcitabine HCl]
relative speed of release from pouches ([1]; comparison of film grades and of drug forms): released faster than gemcitabine base
solubility (physchem): ~80 mg/mL

SMILES: Nc1ccn([C@@H]2O[C@H](CO)[C@@H](O)C2(F)F)c(=O)n1 [gemcitabine base]
approximate solubility ([2]; water at 37° C.): ~15 mg/mL

SMILES: Nc1ccn([C@@H]2O[C@H](CO)[C@@H](O)C2(F)F)c(=O)n1 [gemcitabine]
permeation through 0.5 mm Tecophilic film ([1]; HP-93A-100 and HP-60D-60 pouches): permeated 0.5 mm Tecophilic™ film
permeation through 0.5 mm Tecophilic film [3]: permeated 0.5 mm Tecophilic™ film in one day
gemcitabine release rate, Static vs Rotator [4]: no significant difference

solubility (physchem): ~12 mg/mL
SMILES: Cc1ccc(O)c([C@H](CCN(C(C)C)C(C)C)c2ccccc2)c1 [tolterodine tartrate]

SMILES: O=C(O[C@H]1C[C@H]2CC[C@@H](C1)[N+]21CCCC1)C(O)(c1ccccc1)c1ccccc1 [trospium chloride]
solubility ([2]; 37 °C, water): ~500 mg/mL

SMILES: NC(N)=O [urea]
permeation through 0.5 mm Tecophilic film [3]: permeated 0.5 mm Tecophilic™ film in one day
